Laboratory results taken from patent US5332733A, “Heterocyclically substituted piperazinoakylbenzoxazine and piperazinoalkylbenzothiazine compounds, processes for preparing them, and medicaments containing them” (Kali-Chemie Pharma GmbH, priority 1990, dated 1994).

Columns and labels:
[1] = system: histamine-induced anaphylactoid cutaneous reaction; assay: Inhibition of histamine-induced anaphylactoid cutaneous reaction in rats; format: in vivo, Sprague-Dawley rats; settings: Rattus norvegicus, 1 h, 2 × 10^-5 mole/kg per os, one hour before ovalbumin challenge
Experimental: (§1) 1. Determining Inhibition of Passive Cutaneous Anaphylaxis (PCA) and Histamine-Induced Anaphylactoid Cutaneous Reaction
(§2) The inhibition of the passive cutaneous anaphylaxis and of the anaphylactoid cutaneous reaction induced by histamine was determined as follows:
(§3) Sprague-Dawley rats having a body weight of 150-180 g were injected intradermally in one flank with 50 μl of a 1:75 dilution of the IgE-rich ovalbumin antiserum in physiological saline solution to passively sensitize them to ovalbumin.
(§4) 24 hours after sensitization a solution of 8.25 mg/kg of ovalbumin and 26.4 mg/kg of a blue dye (Evans's Blue) was administered to the rats intravenously according to Martin et al. to trigger passive cutaneous anaphylaxis.
To determine the histamine-induced anaphylactoid skin reaction, the animals are injected intradermally in the flank opposite to the antiserum administration with 50 μl of a physiological saline solution containing 0.8 mg/ml histamine directly before the intravenous injection of the solution containing the ovalbumin and the blue dye.
(§5) On the day of the experiment the test substances were dissolved in distilled water which contained 1 vol. % dimethylformamide and 1 vol. % of Tween™ 20 (=polyoxyethylene (20) sorbitan monolaurate). One hour before administration of the ovalbumin challenge, each animal was orally administered 2×10^-5 mole/kg of test substance in 0.5 ml of solution. For comparison purposes a control group received only the solvent.
(§6) The edematous anaphylactic (PCA) and anaphylactoid (histamine-induced) reactions caused by the stimulation of the intravenous ovalbumin injection, which manifested themselves by edema formation, swelling and exudation of blue dye, were evaluated 30 minutes after their initiation by the intravenous ovalbumin injection. This was done by visually determining the extent to which the blue dye emerged at the sites of edema formation. The percentage inhibition of anaphylactic and anaphylactoid reactions induced by the test substances in comparison with the reactions of the control animals not treated with any test substance was determined using comparison scales.
(§7) The results obtained using compounds of formula I according to the foregoing test methods are shown in the following Table A. The example numbers given for the compounds of formula I relate to the subsequent preparative examples.

[2] = system: passive cutaneous anaphylaxis (PCA); assay: Inhibition of passive cutaneous anaphylaxis (PCA) in rats; format: in vivo, Sprague-Dawley rats; settings: Rattus norvegicus, 1 h, 2 × 10^-5 mole/kg per os, one hour before ovalbumin challenge
Experimental: as §1
The PCA reaction is carried out following the methods described by Goose et al. (J. N. Immunology 16 (1969), 749) and by Martin et al. (Arch. Pharmacol. 316 (1981), 186).
The IgE-rich ovalbumin antiserum used in the test was obtained from immunized Brown-Norway rats. The were immunized with an intraperitoneal injection of a mixture of 100 μg of ovalbumin with a Bordetella pertussis suspension (Vaxicoq™, Manufactured by Institute Merieux, containing 5×10^9 organisms and 1.25 mg Al(OH)3). After 20 days the animals were re-immunized with a further intraperitoneal injection of a solution of 10 μg ovalbumin in 0.5 ml physiological saline solution. After a further four days the blood was removed from the animals and centrifuged. The resulting antiserum was stored at -20° C. until use.
as §2, §3, §4, §5, §6, §7

[3] = system: PAF-induced aggregation of rabbit blood platelets; assay: Anti-PAF activity in vitro, PAF-induced platelet aggregation; format: cell-based, rabbit (New Zealand hybrids); settings: Oryctolagus cuniculus, test substance 10^-5 mole/l, pH 7.4
Excerpt: 4. Determination of Anti-PAF Activity In Vitro
PAF (=Platelet Activating Factor) is a phospholipid mediator which has many effects. Activation of platelet aggregation induces protracted broncho-contraction and hyper-reactivity of the air paths.
In this test the effect of the test substances on platelet aggregation induced by adding PAF to a suspension of platelets obtained from rabbit blood is investigated using the method described by Mikashima et al. (Jap. J. Pharmacol. 44 (1987) 387-391).
A suspension of platelets obtained from rabbit blood containing 4×10^9 platelets/ml in a modified Tyrode buffer solution (=Tyrode solution with 1.3 mM/l CaCl2 and 2.5 g/l gelatine added) adjusted to pH 7.4 was used. Tyrode solution is an aqueous solution containing 136.9 mmoles NaCl, 2.68 mmoles KCl, 2.31 mmoles CaCl2, 1.0 mmole MgCl2, 11.9 mmoles NaHCO3, 1.45 mmoles NaH2 PO4 and 5.55 mmoles glucose per liter. The platelets were obtained from 10 ml blood samples from each of three rabbits (New Zealand hybrids, body weight 3-4 kg). For this the blood samples were treated with ethylenediamine tetraacetic acid and washed according to the method of Artley et al. (Brit. J. Hematol. 19 (1970), 7-17). A platelet-rich plasma was then initially separated by centrifuging (20 minutes at 400×g). The blood platelets were separated from the plasma by recentrifuging for 15 minutes at 1,400×g. The platelets remaining as sediment after centrifuging were resuspended in a Tyrode buffer solution (but without calcium). 0.4 mmole of lysine acetylsalicylate was then added, and after 15 minutes the platelets were sedimented again. The sediment was resuspended in the aforementioned modified Tyrode buffer solution, and the number of platelets in the resulting suspension was adjusted to the desired content.
A 40×10^-9 molar PAF solution was used as a reagent. This solution was made from a 1.8×10^-3 molar stock solution in chloroform. For this purpose a 10 μl sample of the stock solution was evaporated to dryness and redissolved in 180 μl of the modified Tyrode solution to which 0.25% of lipid-free bovine serum albumin had been added. From this 10^-5 molar working solutions were then prepared and stored frozen. Samples of these solutions were appropriately diluted for the tests.
To carry out the test 50 μl of the platelet suspension and 10 μl of a 40×10^-5 molar solution of the compound being investigated were added with stirring (1,000 rpm) to 330 μl of the modified Tyrode buffer solution in an aggregation tube provided with a small magnetic stirrer. This corresponds to a final test substance concentration of 10^-5 mole/l. After 90 seconds preincubation time, 10 μl of the PAF preparation were added. The aggregation occurring in the aggregation tubes was measured over 4-5 minutes with the aid of a computerized aggregometer.
The aggregation which occurred in test tubes containing only platelet suspension was evaluated as 0%, whereas the aggregation which occurred in test tubes containing platelet suspension and PAF preparation was evaluated as 100%. The aggregation which still occurred during the inhibition of the PAF induced platelet aggregation due to the addition of the test substances was measured, and the resulting aggregation inhibition was calculated therefrom in %.

Cc1ccnc(N2CCN(CCCCC3Sc4ccccc4NC3=O)CC2)c1 (stereo not drawn) [Example 1, 2-{4-[4-(4-methylpyridin-2-yl)-piperazin-1-yl]butyl}-2H-1,4-benzothiazine-3(4H)-one]
inhibition in vivo at 20 µmol/kg [1]: 55%
inhibition in vivo at 20 µmol/kg [2]: 88%

Cc1ccnc(N2CCN(CCCC3Oc4ccccc4NC3=O)CC2)c1 (stereo not drawn) [Example 9]
inhibition at 10 µM [3]: 51%
inhibition in vivo at 20 µmol/kg [1]: 30%
inhibition in vivo at 20 µmol/kg [2]: 60%

Cc1ccnc(N2CCN(CCCC3Sc4ccccc4NC3=O)CC2)c1 (stereo not drawn) [Example 8]
inhibition at 10 µM [3]: 48%
inhibition in vivo at 20 µmol/kg [1]: 60%
inhibition in vivo at 20 µmol/kg [2]: 73%

Cc1ccnc(N2CCN(CCCC3Sc4ccccc4NC3=S)CC2)c1 (stereo not drawn) [Example 11]
inhibition at 10 µM [3]: 96%
inhibition in vivo at 20 µmol/kg [1]: 20%
inhibition in vivo at 20 µmol/kg [2]: 55%

O=C1Nc2ccccc2SC1CCCN1CCN(c2ccc(Cl)cn2)CC1 (stereo not drawn) [Example 15]
inhibition in vivo at 20 µmol/kg [1]: 30%
inhibition in vivo at 20 µmol/kg [2]: 60%

Cc1ccnc(N2CCN(CCCCC3Oc4ccccc4NC3=O)CC2)c1 (stereo not drawn) [Example 7]
inhibition in vivo at 20 µmol/kg [1]: 40%
inhibition in vivo at 20 µmol/kg [2]: 70%
